Legend:
[1] = test system: 5637R; experiment: oxaliplatin-DNA adduct formation and repair by AMS; type: cell-based, human
Description: (§1) To characterize the oxaliplatin-DNA adduct frequency in these cell lines, cells from each cell line were seeded in 60-mm dishes at a density of 1×10^6 cells/dish and allowed to attach overnight in a 37° C. humidified atmosphere containing 5% CO2. […] The cells were then washed twice with phosphate-buffered solution (PBS) and maintained thereafter with oxaliplatin-free culture media. DNA was harvested at hours 0, 2, 4, 8, 24, 28 and 48 hours using a Promega Wizard DNA Purification Kit. Ten micrograms of DNA per sample was converted to graphite and measured by AMS for ^14C quantification. Triplicate sets of AMS experiments were performed and the data was plotted as time vs oxaliplatin-DNA adducts per 10^8 nt.

[2] = test system: 5637; experiment: oxaliplatin-DNA adduct formation and repair by AMS; type: cell-based, human
Description: as §1

[3] = human plasma pharmacokinetics of [14C]oxaliplatin microdose; type: in vivo; details: metastatic breast cancer patient; IV microdose
Description: Peripheral blood specimens were drawn into BD Vacutainer CPT™ tubes with sodium heparin from the other arm at specific time points before and after the administration of the microdose. Plasma samples collected at −5 min, 5 min, 15 min, 30 min, 2 h, 4 h, 8 h, 24 h, and 48 h post microdose injection were analyzed by liquid scintillation counting (FIG. 17A).

[4] = sterile solution in water, storage at −20° C.
Description: Radiolabeled carboplatin containing C^14 carbon atoms in the cyclobutane dicarboxylic acid group was formulated for human use as a sterile, pyrogen free solution at 5 mg/mL in water.

[5] = test system: PBMC; experiment: microdose-induced oxaliplatin-DNA adducts in patients; type: in vivo, human
Description: The plasma samples were additionally processed to isolate PBMC, and the DNA was extracted and analyzed using AMS to calculate the oxaliplatin-DNA adduct frequency (both monoadducts and diadducts combined) (FIG. 17B). […] These adduct levels then decrease substantially out to 48 hours post microdosing. […] Overall, the plasma PK and time course of oxaliplatin-DNA adduct formation and repair in PBMC allowed determination of the best time to dose patients prior to biopsy in order to maximize the oxaliplatin-DNA adduct formation, allow for repair in those patients with high repair capacity, minimize the risk of radioactive contamination of PBMC and tumor samples, and also minimize the risk of radioactive contamination of the operating room by blood-borne radiocarbon.
Plasma samples were collected, filtered, and counted by liquid scintillation counting to determine plasma oxaliplatin levels. […] The range of microdose-induced adduct levels (frequencies) for the three colorectal patients was 0.1-6 adducts per 10^8 nt.

[6] = test system: 5637R; experiment: MTT assay IC50, oxaliplatin-resistant bladder cancer sub-line; type: cell-based, human
Description: (§2) Drug-DNA adduct formation and repair was measured by accelerator mass spectrometry.
To confirm that 5637 was the original ATCC cell line, and that 5637R originated from the parental 5637 cell line, both cultures were sent to the ATCC Cell Line Authentication Service for cell verification per the ATCC protocol. More specifically, fifteen short tandem repeat (STR) loci plus the gender determining locus, amelogenin, were amplified using the commercially available PowerPlex® 16HS Kit from Promega.
(§3) These two cell lines were also cultured with a range of concentrations of cisplatin, carboplatin, gemcitabine, doxorubicin, methotrexate and vinblastine for 72 hours to determine IC50 for these other drugs (FIG. 16C). These drugs were chosen because of their frequent use in the treatment of bladder cancer.

[7] = test system: 5637; experiment: MTT assay IC50, bladder cancer cell line; type: cell-based, human; details: 72 hours
Description: Thus, we measured the IC50 of the six NSCLC cell lines from Example 2 to both cisplatin and carboplatin to determine if the sensitivity of these six NSCLC cell lines to the two drugs are correlated.
as §2, §3

[8] = chemotherapy; cited from earlier work
[9] = test system: tumor biopsy sample from the bone marrow; experiment: microdose-induced oxaliplatin-DNA adducts in patient tumor biopsy; type: in vivo, human; details: metastatic breast patient; 48 hours post microdose; n=2 repeats
Description: Therefore, a tumor biopsy sample from the bone marrow of this same metastatic breast patient was collected 48 hours post microdose administration and analyzed by AMS for oxaliplatin-DNA adducts. […] Therefore, in one embodiment, a useful range of oxaliplatin-DNA adduct frequency after microdosing is 0.5-50 adducts per 10^8 nt.

[10] = test system: five bladder cancer cell lines (5637, T24, TCCSUP, HT1197, and J82); experiment: oxaliplatin-DNA adducts by AMS in cell culture; type: cell-based; details: 4 hours
Description: Cells were seeded in 60-mm dishes at a density of 1×10^6 cells/dish and allowed to attach overnight in a 37° C. humidified atmosphere containing 5% C02. […] The cells were then washed twice with phosphate-buffered solution (PBS) and maintained thereafter with oxaliplatin-free culture media. DNA was harvested at hours 0, 2, 4, 8, 24 hours using the modified Wizard procedure described previously. Ten micrograms of DNA per sample was converted to graphite and measured by AMS for ^14C quantification. Triplicate sets of AMS experiments were performed and the data was plotted as time vs oxaliplatin-DNA adducts per 10^8 nt. […] Oxaliplatin-DNA monoadducts could be detected in all cell lines at all time points. […] Therefore, drug-DNA damage from microdoses of oxaliplatin are predictive of the extent of DNA modification caused by the therapeutic dose in cell culture.

[11] = safety of radiolabeled microdose in patients; details: IV microdose, 1% of the therapeutic dose
Description: Microdoses of the [^14C]Carboplatin were administered to human cancer patients as a diagnostic reagent, followed by full dose platinum-based chemotherapy and evaluation of response. Within four weeks of the [^14C]carboplatin microdose, these patients received standard of care chemotherapy for their disease, which included either carboplatin or cisplatin. The patient population consisted of non-small cell lung cancer patients (NSCLC), stage IV with measurable lesions, and bladder transitional cell carcinoma (TCC) patients, stage II disease and above for neoadjuvant treatment, or stage III and IV metastatic disease with measurable lesions for palliative chemotherapy. Patients were identified for this study as having measurable lesions using the Response Evaluation Criteria in Solid Tumor (RECIST), an Eastern Cooperative Oncology Group performance status of <2, and adequate bone marrow and vital organ function. PBMC and tumor tissue were collected from the patients for analysis of carboplatin-DNA monoadduct frequencies. Toxicity of the [^14C]carboplatin diagnostic reagent administered as a microdose was assessed using Common Terminology Criteria for Adverse Events (CTCAE). Toxicities of grade 3 and above were also collected for patient specific toxic response to full dose chemotherapy for correlation analysis to carboplatin-DNA monoadduct frequency. Patient response to chemotherapy was evaluated using the RECIST for correlation to carboplatin-DNA monoadduct frequency.
The dose of carboplatin in the diagnostic microdose was chosen to be sub-toxic and non-therapeutic, to minimize patient chemical and radiation exposure, and to result in AMS measurable carboplatin-DNA monoadducts. Nineteen patients have been administered at least one microdose of [^14C]carboplatin via IV infusion as a diagnostic reagent. Patient toxicity related to the microdose was monitored from the time of IV microdose until the patients received their first chemotherapy. […] The total radioactive dose given to a 75 kg patient after an IV microdose of [^14C]carboplatin is calculated to be 338 μCi. […]

[12] = test system: 5637 and 5637R bladder cancer cell lines; experiment: cytarabine-DNA adducts by AMS, CIV and bolus type treatment; type: cell-based, human; details: low dose or high dose; CIV and bolus treatment regimens
Description: Sensitive and resistant bladder cancer cells were treated with Ara-C in culture. Two treatment conditions were used, one to mimic clinically continuous infusion (CIV) and one to mimic clinically bolus infusion (bolus infusions use a much higher Ara-c dose). The day before treatment, one million bladder cancer cells were seeded in 60-mm dishes and allowed to attach overnight. To simulate CIV treatment, the bladder cancer cell lines were exposed in growth medium with a low (10 nM) or a high (1 μM) dose of ARA-C supplemented with 8 nM ^14C-labeled ARA-C(1000 dpm/mL-20-0.4 mCi/mmol specific activity (Moravek Biochemicals, Inc.) over 24 h (FIG. 25A). At 24 hrs, the cells were harvested and washed for subsequent DNA isolation using the Wizard Genomic DNA Purification Kit. To simulate bolus treatment, the bladder cancer cell lines were exposed in growth medium with a low dose (3 μM) or a high dose ([…]; a highly toxic concentration for these cell lines) supplemented with 0.8 nM ^14C-labeled ARA-C (0.0001 mCi/mmol specific activity) for 4 h, followed by 20 h in drug-free media (FIG. 25B). After a 4-hour incubation, the cells were washed three times with PBS and cultured in drug-free media for an additional 20 hours. DNA from cells isolated at 24 hours was then purified. […] The ratios of ^14C to total C were measured by AMS, and drug-DNA adducts per ten million nucleotides were calculated.

[13] = test system: THP-1; experiment: CellTiter 96 Aqueous cell proliferation assay; type: cell-based; details: Homo sapiens, 72 hr continuous treatment
From the text: (§4) Correlation of IC50 to the AML induction drugs Dox and Ara-C were first performed with the adherent bladder cancer cell lines 5637 and 5637R for cytarabine and with the adherent ovarian cancer cell lines A2780 and A2780ADR for doxorubicin. Cell lines 5637 and 5637R (Ara-C resistant) have been described previously (20). A2780 and A2780ADR (doxorubicin resistant) were purchased from Sigma-Aldrich and grown as recommended. IC50 values were obtained by plating 4000 cells per well in 96-well plates the night before treatment, and then allowing the cells to adhere over night. Leukemia cell lines capable of continuous proliferation in suspension and having differential sensitivities to Dox and Ara-C were also obtained for correlation analysis. MV-4-11 (acute monocytic leukemia) and THP-1 (acute monocytic leukemia) human cell lines were purchased from American Type Culture Collection (ATCC, Manassas, Va.). MOLM-13 (acute myeloid leukemia) human cells were purchased from AddexBio (San Diego, Calif.). For leukemia cell lines (suspension cultures), approximately 8,000-11,000 cells were seeded per well in 96-well plates the day of treatment. MV-4-11 cells were grown in IMDM (Iscove's Modified Dulbecco's Media) with 10% FBS, 100 U/ml penicillin, and 100 μg/ml streptomycin. THP-1, A2780, and A2780ADR cells were grown in RPMI-1640 media with 10% FBS, 100 U/ml penicillin, and 100 μg/ml streptomycin. 5637, 5637R, and MOLM-13 cells were grown in RPMI-1640 media with 20% FBS, 100 U/ml penicillin, and 100 μg/ml streptomycin. All cells were cultured at 37° C. in a humidified incubator. The cells were then incubated with increasing doses of cytarabine or doxorubicin continuously for 72 hours. IC50 values were determined using the CellTiter 96 Aqueous Non-Radioactive Cell Proliferation Assay (Promega). […] As shown, 5637 and 5673R have differential sensitivity to cytarabine, while A2780 and A2780ADR have differential sensitivity to doxorubicin. The leukemic suspension cell lines also have differential sensitivity to these two drugs.

[14] = test system: 5637R; experiment: CellTiter 96 Aqueous cell proliferation assay; type: cell-based; details: Homo sapiens, 72 hr continuous treatment
From the text: as §4

[15] = test system: MV-4-11; experiment: CellTiter 96 Aqueous cell proliferation assay; type: cell-based; details: Homo sapiens, MV4-11, 72 hr continuous treatment
From the text: as §4

[16] = test system: 5637; experiment: CellTiter 96 Aqueous cell proliferation assay; type: cell-based; details: Homo sapiens, 72 hr continuous treatment
From the text: as §4

[17] = test system: MOLM-13; experiment: CellTiter 96 Aqueous cell proliferation assay; type: cell-based; details: Homo sapiens, 72 hr continuous treatment
From the text: as §4

[18] = test system: THP-1; experiment: ARA-C incorporation into DNA by AMS; type: cell-based, human; details: THP-1 (least sensitive); 1.6 nM or 16 nM ARA-C 24 hrs
Description: (§5) MV-4-11, THP-1, and MOLM-13 cells are human, immortalized, myelogenous leukemia cell lines that proliferate continuously in suspension. These cell lines serve as a cell culture model for AML. Suspension cultures consisting of two million cells in […] culture dishes were treated with ARA-C for 24 hrs (to simulate CIV) prior to DNA isolation. The cultures were dosed with a low (1.6 nM) or a high (16 nM) dose of ARA-C supplemented with 0.8 nM ^14C-labeled ARA-C (100 dpm/mL, 2.4-16.7 mCi/mmol specific activity), and isolated DNA was analyzed by AMS to determine drug-DNA adduct levels. The suspension cell lines were dosed in primary cell media (IMDM+20% BIT9500 serum substitute, 20 ng/mL IL-3, 10 ng/mL IL-6, 20 ng/mL G-CSF, 20 ng/mL GM-CSF, 50 ng/mL SCF) to mimic the dosing conditions that will be used for patient-derived AML samples. This media is used for short term culturing of primary AML cells that are previously collected from patients, frozen and stored in a biobank.

[19] = test system: MOLM-13; experiment: ARA-C incorporation into DNA by AMS; type: cell-based, human; details: MOLM-13 (most sensitive); 1.6 nM or 16 nM ARA-C 24 hrs
Description: as §5

[20] = 24 hour culture without oxaliplatin

Question: Which results are given for `O=C1[O][Pt]2([NH][C@@H]3CCCC[C@H]3[NH]2)[O]C1=O` [oxaliplatin]?
Answer: oxaliplatin-DNA adducts at 24 hours ([1]; 10 μM for 24 hours): 259.2±37.3 adducts per 10^8 nucleotide; repair rate [1, 20]: 3.48±0.15 adducts per 10^8 nucleotide-hour; area under curve (AUC) of oxaliplatin-DNA adducts ([1]; 48 hour study period): 9,426±2457 adducts per 10^8 nucleotide-hour; oxaliplatin-DNA adducts at 24 hours ([2]; 10 μM for 24 hours): 710.0±32.2 adducts per 10^8 nucleotide; repair rate [2, 20]: 1.34±0.30 adducts per 10^8 nucleotides-hour; area under curve (AUC) of oxaliplatin-DNA adducts ([2]; 48 hour study period): 27,720±2,985 adducts per 10^8 nucleotide-hour; T1/2 (α), first (fast) phase [3]: 13.3 min; loss of radiopurity per year [4]: < 2%; maximum oxaliplatin-DNA adducts in PBMC ([5]; metastatic breast cancer patient, first 4 hours after microdose): 8 adducts per 10^8 nt; range of microdose-induced adduct levels (frequencies) ([5]; three colorectal patients, PBMC): 0.1-6 adducts per 10^8 nt; increase of IC50 of 5637R compared to parental 5637 [6]: approximately 10 fold; IC50 ([6]; 5637R, 72 hours): 27.3 µM; IC50 [7]: 2.45 µM; peak human oxaliplatin plasma concentration during chemotherapy [8]: 10 µM; oxaliplatin-DNA adduct frequency [9]: 14.6±4.9 per 10^8 nt; DNA damage concentrations (oxaliplatin-DNA adducts) ([10]; microdose 0.1 μM oxaliplatin): 50-100 adducts per 10^8 nt; DNA damage concentrations (oxaliplatin-DNA adducts) ([10]; therapeutic dose 10 μM oxaliplatin): 5,000-10,000 adducts per 10^8 nt; clinical side effects [11]: None of the clinical side effects associated with standard therapeutic doses of oxaliplatin were observed

Question: For `Nc1ccn([C@@H]2O[C@H](CO)[C@@H](O)[C@@H]2O)c(=O)n1` [cytarabine], which “cytarabine-DNA adducts in resistant 5637R compared to parent 5637” value [12] is on record?
Answer: Its value is “fewer cytarabine-DNA adducts”.

Question: And the IC50 [13]?
Answer: Its IC50 is 4.4 µM.

Question: What about the IC50 [14] of the same compound?
Answer: Its IC50 is 60.1 µM.

Question: What about the IC50 [15] of the same compound?
Answer: The IC50 was 0.353 µM.

Question: And the IC50 [16]?
Answer: Its IC50 is 5.69 µM.

Question: And the IC50 [17]?
Answer: The IC50 was 0.018 µM.

Question: And the “levels of ARA-C incorporation among three AML cell lines” value [18]?
Answer: Its value is “lowest levels of ARA-C incorporation”.

Question: And the “levels of ARA-C incorporation among three AML cell lines” value [19]?
Answer: The value was “highest levels of ARA-C incorporation”.
